Assay results from PMC10817917, “Alkyl deoxyglycoside-polymyxin combinations against critical priority carbapenem-resistant gram-negative bacteria” (Scientific Reports, 2024).
Values joined by “and” are separate entries in the source; they are usually repeats but may differ in a detail not shown here. Equal entries are not always repeated. Where two headings read alike, the source gives them in different places.

Key:
[1] = test system: K. pneumoniae CQ4921; assay: Broth microdilution MIC/MBC, glycosides with or without polymyxins; format: cell-based, Klebsiella pneumoniae; details: for MIC: Klebsiella pneumoniae, CQ4921
[2] = test system: HEK-293T cells; assay: Resazurin cell viability assay (cytotoxicity); format: cell-based, human; details: 72 h, read-out: IC50
Summary of the method: (§1)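 HEK-293T and Caco-2 cells (1.5 × 10^4/well, RPMI 1640 with 10% FBS) exposed 72 h at 37 °C to glycosides at final 100 to 10 µM, alone or with PMB or colistin at final 0.5, 0.25 or 0.125 µg/mL; max DMSO 0.33%. Resazurin added 4 h, read 570/600 nm; IC50 from dose-response fits, mean ± SD of three replicates.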

[3] = test system: Caco-2 cells; assay: Resazurin cell viability assay (cytotoxicity); format: cell-based, human; details: Homo sapiens, Caco-2, 72 h, read-out: IC50
Summary of the method: as §1

[4] = test system: Bacillus anthracis (Sterne, ovine and pathogenic forms), Enterococcus faecalis and Bacillus cereus; details: Gram-positive bacteria; cited from earlier work
[5] = test system: E. coli ATCC 25922; assay: Broth microdilution MIC/MBC, glycosides with or without polymyxins; format: cell-based, Escherichia coli; details: for MIC: Escherichia coli, ATCC25922
[6] = test system: E. coli NCTC 13846; assay: as above; format: cell-based, Escherichia coli; details: strain B
[7] = test system: A. baumannii CQ4322; assay: as above; format: cell-based, Acinetobacter baumannii; details: for MIC: Acinetobacter baumannii, CQ4322
[8] = alone, read-out: MICA (MIC of each compound individually)
[9] = combination with the lowest FICI
[10] = compound + colistin, lowest FICI

Structure (SMILES): CCCCCCCCCCCCO[C@@H]1O[C@H](C)C[C@H](O)[C@H]1O [Compound 2, dodecyl 4,6-dideoxy-α/β-D-xylo-hexopyranoside]
- MIC of colistin in combination with the compound ([1]; Cpd conc. 0.4 μg/mL, strain C): 0.5 µg/mL
- MIC of colistin in combination with the compound ([1]; Cpd conc. 0.8 μg/mL, strain C): 0.5 µg/mL
- MIC of colistin in combination with the compound ([1]; Cpd conc. 3.125 μg/mL, strain C): 0.125 µg/mL
- MIC of colistin in combination with the compound ([1]; Cpd conc. 6.25 μg/mL, strain C): 0.125 µg/mL
- MIC of colistin in combination with the compound ([1]; Cpd conc. 12.5 μg/mL, strain C): 0.125 µg/mL
- MIC of colistin in combination with the compound ([1]; Cpd conc. […], strain C): 0.5 µg/mL
- MIC ([1]; agent alone, no adjuvant (polymyxin conc. 0), strain C, read-out: MIC): > 100 µg/mL
- MIC [1, 8]: > 100 µg/mL
- MIC of compound in combination with PMB ([1]; PMB 0.5 μg/mL, strain C): ≤ 0.1 µg/mL
- MIC of compound in combination with colistin ([1]; colistin 0.06 μg/mL, strain C): > 100 µg/mL
- MBC of compound in combination with colistin ([1]; colistin 0.125 μg/mL, strain C): 6.3 µg/mL
- MIC of compound in combination with colistin ([1]; colistin 0.125 μg/mL, strain C): 3.1 µg/mL
- MIC of compound in combination with colistin ([1]; colistin 0.25 μg/mL, strain C): 3.1 µg/mL
- MIC of compound in combination with colistin ([1]; colistin 0.5 μg/mL, strain C): ≤ 0.1 µg/mL
- MICA(A + B) (MIC of compound in combination with colistin) [1, 9]: 3.125 mg/L
- MICB(A + B) (MIC of colistin in combination with compound) [1, 9]: 0.125 mg/L
- Interpretation (of FICI) ([1]; compound + colistin): Synergy (Values ≤ 0.5 were considered synergistic)
- FICI [1, 10]: 0.27
- IC50 ([2]; Homo sapiens, HEK-293T, Colistin 0.25 μg/mL): 80.7 ± 6.08 µM
- IC50 ([2]; Homo sapiens, HEK-293T, Colistin 0.5 μg/mL): 84.1 ± 2.87 µM
- IC50 ([2]; Homo sapiens, HEK-293T, No polymyxin): 84.2 ± 2.59 µM
- IC50 ([2]; Homo sapiens, HEK-293T, PMB 0.25 μg/mL): 84.5 ± 1.52 µM
- IC50 ([2]; Homo sapiens, HEK-293T, PMB 0.5 μg/mL): 82 ± 2.9 µM
- IC50 ([2]; Homo sapiens, HEK-293T, tested alone (no polymyxin adjuvant)): 26.6 µg/mL
- IC50 ([2]; No polymyxin): 84.2 µM
- IC50 ([3]; Colistin 0.125 μg/mL): 55.7 ± 0.52 µM
- IC50 ([3]; Colistin 0.25 μg/mL): 58.09 ± 0.33 µM
- IC50 ([3]; Colistin 0.5 μg/mL): 53.4 ± 5.35 µM
- IC50 ([3]; No polymyxin): 54.8 ± 0.61 µM
- IC50 ([3]; PMB 0.25 μg/mL): 58.8 ± 2.66 µM
- IC50 ([3]; PMB 0.5 μg/mL): 56.4 ± 3.9 µM
- IC50 ([3]; tested alone (no polymyxin adjuvant)): 17.4 µg/mL
- MIC [4]: > 405 µM
- MIC of colistin in combination with the compound ([5]; Cpd conc. 0.4 μg/mL, strain A): > 0.5 µg/mL
- MIC of colistin in combination with the compound ([5]; Cpd conc. 0.8 μg/mL, strain A): 0.5 µg/mL
- MIC of colistin in combination with the compound ([5]; Cpd conc. 3.125 μg/mL, strain A): ≤ 0.06 µg/mL
- MIC of colistin in combination with the compound ([5]; Cpd conc. 6.25 μg/mL, strain A): ≤ 0.06 µg/mL
- MIC of colistin in combination with the compound ([5]; Cpd conc. 12.5 μg/mL, strain A): ≤ 0.06 µg/mL
- MIC of colistin in combination with the compound ([5]; Cpd conc. […], strain A): 0.5 µg/mL
- MIC ([5]; agent alone, no adjuvant (polymyxin conc. 0), strain A, read-out: MIC): > 100 µg/mL
- MIC [5, 8]: > 100 µg/mL
- MIC of compound in combination with PMB ([5]; PMB 0.5 μg/mL, strain A): 0.8 µg/mL
- MIC of compound in combination with colistin ([5]; colistin 0.06 μg/mL, strain A): 3.1 µg/mL
- MBC of compound in combination with colistin ([5]; colistin 0.125 μg/mL, strain A): 3.1|3.1 μg/mL
- MIC of compound in combination with colistin ([5]; colistin 0.125 μg/mL, strain A): 3.1 μg/mL and 3.1|3.1 μg/mL
- MIC of compound in combination with colistin ([5]; colistin 0.25 μg/mL, strain A): 3.1 µg/mL
- MIC of compound in combination with colistin ([5]; colistin 0.5 μg/mL, strain A): 0.4 µg/mL
- MICA(A + B) (MIC of compound in combination with colistin) [5, 9]: 3.125 mg/L
- MICB(A + B) (MIC of colistin in combination with compound) [5, 9]: 0.06 mg/L
- Interpretation (of FICI) ([5]; compound + colistin): Synergy (Values ≤ 0.5 were considered synergistic)
- FICI [5, 10]: 0.14
- MIC of colistin in combination with the compound ([6]; Cpd conc. 0.4 μg/mL): > 0.5 µg/mL
- MIC of colistin in combination with the compound ([6]; Cpd conc. 0.8 μg/mL): > 0.5 µg/mL
- MIC of colistin in combination with the compound ([6]; Cpd conc. 3.125 μg/mL): > 0.5 µg/mL
- MIC of colistin in combination with the compound ([6]; Cpd conc. 6.25 μg/mL): > 0.5 µg/mL
- MIC of colistin in combination with the compound ([6]; Cpd conc. 12.5 μg/mL): > 0.5 µg/mL
- MIC of colistin in combination with the compound ([6]; Cpd conc. […]): > 0.5 µg/mL
- MIC ([6]; Escherichia coli, NCTC13846, agent alone, no adjuvant (polymyxin conc. 0), read-out: MIC): > 100 µg/mL
- MIC of compound in combination with PMB ([6]; PMB 0.25 μg/mL): > 100 µg/mL
- MIC of compound in combination with PMB ([6]; PMB 0.5 μg/mL): > 100 µg/mL
- MIC of compound in combination with colistin ([6]; colistin 0.06 μg/mL): > 100 µg/mL
- MBC of compound in combination with colistin ([6]; colistin 0.125 μg/mL): > 100|> 100 μg/mL
- MIC of compound in combination with colistin ([6]; colistin 0.125 μg/mL): > 100|> 100 μg/mL
- MIC of compound in combination with colistin ([6]; colistin 0.25 μg/mL): > 100 µg/mL
- MIC of compound in combination with colistin ([6]; colistin 0.5 μg/mL): > 100 µg/mL
- MIC ([7]; agent alone, no adjuvant (polymyxin conc. 0), strain G, read-out: MIC): > 100 µg/mL
- MIC [7, 8]: > 100 µg/mL
- MIC of colistin in combination with the compound ([7]; Cpd conc. 0.4 μg/mL, strain G): > 0.5 µg/mL
- MIC of colistin in combination with the compound ([7]; Cpd conc. 0.8 μg/mL, strain G): 0.5 µg/mL
- MIC of colistin in combination with the compound ([7]; Cpd conc. 3.125 μg/mL, strain G): 0.25 µg/mL
- MIC of colistin in combination with the compound ([7]; Cpd conc. 6.25 μg/mL, strain G): 0.125 µg/mL
- MIC of colistin in combination with the compound ([7]; Cpd conc. 12.5 μg/mL, strain G): 0.125 µg/mL
- MIC of colistin in combination with the compound ([7]; Cpd conc. […], strain G): 0.5 µg/mL
- MIC of compound in combination with PMB ([7]; PMB 0.5 μg/mL, strain G): 0.8 µg/mL
- MIC of compound in combination with colistin ([7]; colistin 0.06 μg/mL, strain G): > 100 µg/mL
- MBC of compound in combination with colistin ([7]; colistin 0.125 μg/mL, strain G): 12.5 µg/mL
- MIC of compound in combination with colistin ([7]; colistin 0.125 μg/mL, strain G): 6.3 µg/mL
- MIC of compound in combination with colistin ([7]; colistin 0.25 μg/mL, strain G): 3.1 µg/mL
- MIC of compound in combination with colistin ([7]; colistin 0.5 μg/mL, strain G): 0.8 µg/mL
- MICA(A + B) (MIC of compound in combination with colistin) [7, 9]: 6.25 mg/L
- MICB(A + B) (MIC of colistin in combination with compound) [7, 9]: 0.125 mg/L
- FICI [7, 10]: 0.28
